What was measured:
wild type CFTR = wild type CFTR (Homo sapiens, UniProt P13569); test: CFTR activity in normal HBE cells (NHBE); type: cell-based; design: University of North Carolina; host or cells: primary normal human bronchial epithelial cells; details: forskolin 0.1 or 0.3 μM, potentiator GLPG2451 10 μM added afterwards
Experimental: Bronchial epithelial cells isolated from transplanted lungs from normal (wt CFTR) or CF patients homozygous for the F508del CFTR mutation, were obtained from McGill University (Montreal, QC, Canada) and University of North Carolina (Chapel Hill, NC, United States). Cells were isolated from lungs obtained from donors undergoing a planned transplantation. These primary cells were cultured directly on type IV collagen-coated polycarbonate Transwell supports with a diameter of 6.5 mm and pore size of 0.4 μm (Costar, #3397) for 18–25 days in air liquid (ali) interface essentially as previously described ([Fulcher et al., 2005]) for TECC. A similar cell culture protocol was used for Ussing chambers but using type IV collagen-coated polycarbonate Millicell supports with a diameter of 12 mm and a pore size of […] (Millicell, PIHP01250).
Corrector and/or potentiator compound(s) were added on the basolateral side of the HBEs for 24 h to rescue F508del CFTR. […] The transepithelial potential (PD) and transepithelial resistance (Rt) were measured in an open circuit and transformed to Ieq using Ohm’s law. […]
FIGURE 6 Effects of GLPG2737 on normal human bronchial epithelial cells (NHBE) and HEK cells expressing WT CFTR. […] (D) NHBE treated for 24 h with 1 μM GLPG2737 or DMSO (control), CFTR channel was activated with either 0.1 μM or 0.3μM forskolin, measured Isc shown in gray. […]

F508del CFTR = F508del CFTR (Homo sapiens, UniProt P13569, DEL508-508); test: Western blot (Band B/C) in CSE-MEM cells; type: cell-based; design: University of North Carolina; host or cells: primary human bronchial epithelial cells, F508del/F508del donors; details: 24 h, compound alone
F508del CFTR, sequence (P13569 with tags, fused parts or gaps DEL508-508): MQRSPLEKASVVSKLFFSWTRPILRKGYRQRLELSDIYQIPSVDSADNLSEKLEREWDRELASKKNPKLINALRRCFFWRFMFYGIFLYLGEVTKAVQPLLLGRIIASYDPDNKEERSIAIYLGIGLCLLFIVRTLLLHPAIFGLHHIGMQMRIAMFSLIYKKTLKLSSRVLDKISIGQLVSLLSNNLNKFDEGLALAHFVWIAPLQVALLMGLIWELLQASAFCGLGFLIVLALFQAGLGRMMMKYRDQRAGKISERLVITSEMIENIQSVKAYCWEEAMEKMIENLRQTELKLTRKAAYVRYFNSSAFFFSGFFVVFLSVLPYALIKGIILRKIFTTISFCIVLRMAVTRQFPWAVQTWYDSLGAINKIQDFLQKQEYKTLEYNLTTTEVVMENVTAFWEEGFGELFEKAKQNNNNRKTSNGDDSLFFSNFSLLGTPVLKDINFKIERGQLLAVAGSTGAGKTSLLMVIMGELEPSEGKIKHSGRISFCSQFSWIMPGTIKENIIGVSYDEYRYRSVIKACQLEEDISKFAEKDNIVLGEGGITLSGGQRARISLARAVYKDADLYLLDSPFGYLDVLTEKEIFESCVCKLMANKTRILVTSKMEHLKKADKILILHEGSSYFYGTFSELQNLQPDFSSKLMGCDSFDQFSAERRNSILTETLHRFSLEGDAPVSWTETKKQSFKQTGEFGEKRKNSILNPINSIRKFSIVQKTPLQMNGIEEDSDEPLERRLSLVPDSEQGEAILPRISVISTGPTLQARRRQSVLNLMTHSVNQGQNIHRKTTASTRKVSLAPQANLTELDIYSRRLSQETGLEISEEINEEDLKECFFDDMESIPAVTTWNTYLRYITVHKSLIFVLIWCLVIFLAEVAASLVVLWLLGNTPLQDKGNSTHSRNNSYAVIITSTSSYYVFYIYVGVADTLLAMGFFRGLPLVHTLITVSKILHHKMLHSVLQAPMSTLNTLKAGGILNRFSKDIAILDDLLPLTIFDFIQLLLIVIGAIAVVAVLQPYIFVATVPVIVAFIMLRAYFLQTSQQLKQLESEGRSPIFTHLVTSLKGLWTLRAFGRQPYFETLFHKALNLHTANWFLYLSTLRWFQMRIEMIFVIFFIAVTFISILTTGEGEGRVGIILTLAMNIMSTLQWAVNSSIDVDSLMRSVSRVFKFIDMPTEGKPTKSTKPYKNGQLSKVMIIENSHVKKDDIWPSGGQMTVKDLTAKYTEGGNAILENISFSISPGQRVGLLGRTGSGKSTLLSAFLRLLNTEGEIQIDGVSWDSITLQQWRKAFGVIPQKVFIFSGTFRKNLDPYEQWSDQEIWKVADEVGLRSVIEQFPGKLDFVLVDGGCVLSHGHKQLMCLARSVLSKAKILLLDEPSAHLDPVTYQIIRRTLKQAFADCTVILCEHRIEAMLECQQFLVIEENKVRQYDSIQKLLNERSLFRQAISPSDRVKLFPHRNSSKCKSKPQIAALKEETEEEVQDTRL
Experimental: For Western blot, U2OS EA-MEM F508del CFTR (CSE-MEM) cells were seeded in six well plates at a density of 2.5e6 cells/well on day 1 and incubated at 37°C and 5% CO2. Cells were treated with corrector compounds on day 2 and were lysed 24 h later. For the lysis, cells were washed with 1 ml PBS and incubated with 300 μl cell dissociation solution/well (Sigma, Cat No. C5789-100ML) for 15 min at 37°C and 5% CO2. Medium was collected and centrifuged for 5 min at 1,000 rpm and the supernatant removed. The pellet was re-suspended for 30 min on ice in the lysis buffer containing 1% NP-40, 0.5% sodium deoxycholate, 200 mM NaCl, 10 mM Tris pH 7.8, 1 mM EDTA and a protease inhibitor cocktail tablet from Roche (Cat No. 11873580001). For gel electrophoresis, 2.5 μl 10X Nupage reducing agent (Invitrogen, Cat No. NP0004) and 6 μl 4X Nupage sample buffer (Invitrogen, Cat No. NP0007) were added to 17 μl lysate and incubated for 15 min at 37°C. […]

wild type CFTR, sequence (P13569 whole entry): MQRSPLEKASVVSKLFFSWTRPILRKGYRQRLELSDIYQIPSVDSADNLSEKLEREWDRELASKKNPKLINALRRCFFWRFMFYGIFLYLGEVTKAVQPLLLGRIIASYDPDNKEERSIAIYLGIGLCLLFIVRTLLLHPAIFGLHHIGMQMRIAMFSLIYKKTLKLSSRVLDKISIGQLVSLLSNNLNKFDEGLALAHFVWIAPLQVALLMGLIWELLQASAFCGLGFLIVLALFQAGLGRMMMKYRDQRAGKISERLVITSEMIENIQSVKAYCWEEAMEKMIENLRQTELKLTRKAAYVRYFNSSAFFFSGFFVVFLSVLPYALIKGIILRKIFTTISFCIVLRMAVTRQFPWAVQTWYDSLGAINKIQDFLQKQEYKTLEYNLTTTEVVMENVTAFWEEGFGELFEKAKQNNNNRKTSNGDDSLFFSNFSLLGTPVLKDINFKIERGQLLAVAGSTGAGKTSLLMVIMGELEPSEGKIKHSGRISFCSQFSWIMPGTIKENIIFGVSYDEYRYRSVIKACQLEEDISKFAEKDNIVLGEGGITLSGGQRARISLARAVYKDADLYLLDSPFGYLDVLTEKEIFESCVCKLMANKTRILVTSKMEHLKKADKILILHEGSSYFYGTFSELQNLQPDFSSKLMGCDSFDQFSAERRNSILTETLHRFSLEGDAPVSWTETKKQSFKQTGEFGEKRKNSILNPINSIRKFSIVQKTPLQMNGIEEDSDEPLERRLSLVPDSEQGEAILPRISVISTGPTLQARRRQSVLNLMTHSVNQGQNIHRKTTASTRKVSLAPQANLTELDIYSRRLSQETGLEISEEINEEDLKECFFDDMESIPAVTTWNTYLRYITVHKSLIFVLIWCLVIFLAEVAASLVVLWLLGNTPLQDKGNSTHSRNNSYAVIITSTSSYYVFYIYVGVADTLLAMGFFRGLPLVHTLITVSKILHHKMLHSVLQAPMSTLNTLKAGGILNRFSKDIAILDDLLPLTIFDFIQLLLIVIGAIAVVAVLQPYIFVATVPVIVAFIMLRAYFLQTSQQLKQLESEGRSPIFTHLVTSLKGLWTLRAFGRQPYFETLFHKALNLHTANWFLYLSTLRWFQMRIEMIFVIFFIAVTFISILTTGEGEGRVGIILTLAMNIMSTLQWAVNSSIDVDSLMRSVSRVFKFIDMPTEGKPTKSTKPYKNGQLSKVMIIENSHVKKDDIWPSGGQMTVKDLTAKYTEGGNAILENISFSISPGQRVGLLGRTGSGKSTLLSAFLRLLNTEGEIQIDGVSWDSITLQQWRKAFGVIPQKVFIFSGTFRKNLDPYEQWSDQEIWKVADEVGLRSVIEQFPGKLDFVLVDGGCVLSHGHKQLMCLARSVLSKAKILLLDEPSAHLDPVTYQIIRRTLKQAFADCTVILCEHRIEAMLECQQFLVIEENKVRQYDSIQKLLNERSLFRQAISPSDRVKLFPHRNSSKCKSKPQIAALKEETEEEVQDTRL

Compound: COC1CCN(C2CCN(c3cc(C(=O)NS(=O)(=O)N(C)C)nc4c3c(C3CCC3)nn4-c3ccc(F)cc3)CC2)CC1 [GLPG2737]
- CFTR activity (wild type CFTR): reduced CFTR activity which could be rescued upon addition of a potentiator
- Band C (mature complex-glycosylated F508del CFTR) (F508del CFTR): confirmed

Source: article PMC6521598, “Identification of GLPG/ABBV-2737, a Novel Class of Corrector, Which Exerts Functional Synergy With Other CFTR Modulators” (Frontiers in Pharmacology, 2019)
